The values that follow come from US20110098309A1, “METHODS OF INHIBITING THE FORMATION OF AMYLOID-BETA DIFFUSABLE LIGANDS USING ACYLHYDRAZIDE COMPOUNDS” (priority 2007, published 2011).

For the experiment, the target named is Aβ1-42 (Homo sapiens, UniProt P05067). Briefly: FRET assay of Aβ1-42 oligomer (ADDL) assembly inhibition. To be noted: 0.2 μM FITC-Aβ(1-42) and 0.8 μM Aβ(1-42), 37° C., six concentrations from about 10 μM to about 0.03 μM. The class given is biochemical. The source says: Fluorescence (or Förster) Resonance Energy Transfer (FRET) is a distance-dependent, non-radiative transfer of energy in which the de-excitation of one fluorophore (donor) is coupled to excitation of another fluorophore (acceptor). FRET occurs if (1) the quantum of energy emitted by a donor fluorophore corresponds to an acceptor fluorophore's excitation energy, (2) the orientations of donor and acceptor transition dipoles are nearly parallel and (3) the donor fluorescent emission spectrum overlaps the acceptor absorption spectrum.
In this assay, assembly of Aβ1-42 oligomer formation is monitored by FRET using N-terminal conjugates of fluorescein-Aβ1-42 as both the donor and acceptor fluorophore (fluorescein-fluorescein Ro˜45 Å). […] Inhibition of Aβ1-42 assembly is observed as the absence or attenuation of fluorescein quenching.
FRET and FP assays are performed in 384-well Corning Non-Binding Surface, black, opaque microtiter plates, and the assay buffer consists of 25 mM MOPS-Tris (pH 8.0) with 100 mM MgCl2. The assay volume, containing 0.2 μM FITC-Aβ(1-42) and 0.8 μM Aβ(1-42), is 50 μl and the temperature is 37° C. […] Kinetic traces are collected by recording fluorescence intensity and polarization readings every five minutes over about a three hour time course. […] Positive control reactions contain all buffer components in the absence of added small molecule or antibody reagents. To test for ADDL assembly inhibition, the compound was incubated with the peptide mixture at six concentrations from about 10 μM decreasing to about 0.03 μM.

Sequence of Aβ1-42 (P05067 672-713 limits assumed): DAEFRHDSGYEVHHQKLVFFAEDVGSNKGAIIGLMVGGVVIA

As to `COc1cccc(/C=N/NC(=O)c2ccccc2O)c1O` [Compound 94, 2-hydroxy-N′-(2-hydroxy-3-methoxybenzylidene)benzohydrazide], the IC50 is 24.9 µM. Take `O=C(N/N=C/c1cc(Br)cc(Br)c1O)c1ccccc1O` [Compound 42, N′-(3,5-dibromo-2-hydroxybenzylidene)-2-hydroxybenzohydrazide]: the IC50 was 2.8 µM.

`COc1ccc(O)c(/C=N/NC(=O)c2ccccc2O)c1` [Compound 83, 2-hydroxy-N′-(2-hydroxy-5-methoxy-benzylidene)benzohydrazide] yielded an IC50 of 15.4 µM.

The molecule `O=C(N/N=C/c1cc(C2CCCCC2)cc(Cl)c1O)c1ccccc1O` [Compound 46, N′-(3-chloro-5-cyclohexyl-2-hydroxybenzylidene)-2-hydroxybenzo-hydrazide] showed an IC50 of 3.3 µM. As for `COc1ccc(O)c(/C=N/NC(=O)c2cc3ccccc3cc2O)c1` [Compound 37, 3-hydroxy-N′-(2-hydroxy-5-methoxy-benzylidene)-2-naphtho hydrazide], the figure is 1.2 µM.

On to `O=C(N/N=C/c1c(O)ccc2ccccc12)c1ccccc1NS(=O)(=O)c1ccc(Cl)cc1` [Compound 43, 4-chloro-N-(2-(2-((2-hydroxynaphthalen-1-yl)methylene)hydrazinecarbonyl)phenyl) benzenesulfonamide], for which the IC50 is 3.2 µM.

With `COc1ccc(O)c(/C=N/NC(=O)c2cc(F)ccc2O)c1` [Compound 75, 5-fluoro-2-hydroxy-N′-(2-hydroxy-5-methoxy-benzylidene)benzohydrazide], the IC50 came out at 10.9 µM.

For the molecule `C=CCc1cccc(/C=N/NC(=O)c2ccc(I)cc2)c1O` [Compound 60, N′-(3-allyl-2-hydroxy-benzylidene)-4-iodo-benzohydrazide], the IC50 worked out at 6.5 µM. As for `C/C(CC(=O)N1CCC(c2ccccc2)CC1)=N\NC(=O)c1ccccc1O` [Compound 29, 2-hydroxy-N′-(4-oxo-4-(4-phenylpiperidin-1-yl)butan-2-ylidene)benzohydrazide], the figure is 26.7 µM; as for `Cc1ccc(C(=O)N/N=C(/CC(=O)c2cccs2)C(F)(F)F)cc1` [Compound 33, 4-methyl-N′-(1,1,1-trifluoro-4-oxo-4-(thiophen-2-yl)butan-2-ylidene)benzohydrazide], 40.8 µM. `COc1ccc(O)c(/C=N/NC(=O)c2ccc(-n3cccc3)cc2O)c1` [Compound 36, 2-hydroxy-N′-(2-hydroxy-5-methoxy-benzylidene)-4-(1H-pyrrol-1-yl) benzohydrazide] returned an IC50 of 1 µM. Consider `O=C(C/C(=N/NC(=O)c1sc2cc(F)ccc2c1Cl)C(F)(F)F)c1cc2ccccc2s1` [Compound 17, N′-(4-(benzo[b]thiophen-2-yl)-1,1,1-trifluoro-4-oxobutan-2-ylidene)-3-chloro-6-fluorobenzo[b] thiophene-2-carbohydrazide], for which the IC50 was 10.2 µM. The molecule `O=C(N/N=C/c1ccc(O)cc1O)c1ccccc1NS(=O)(=O)c1ccc(Cl)cc1` [Compound 62, 4-chloro-N-(2-(2-(2,4-dihydroxy-benzylidene)hydrazine-carbonyl)phenyl)benzene-sulfonamide] gave an IC50 of 6.7 µM. As to `Cc1csc(C(=O)N/N=C(/CC(=O)c2cccs2)C(F)(F)F)c1Cl` [Compound 21, 3-chloro-4-methyl-N′-(1,1,1-trifluoro-4-oxo-4-(thiophen-2-yl)butan-2-ylidene)thiophene-2-carbohydrazide], the IC50 was 12.5 µM. Compared with the last molecule, the IC50 is about 1.9-fold higher. Take `COc1ccc(O)c(/C=N/NC(=O)c2cc(-c3ccc4c(c3)OCO4)n[nH]2)c1` [Compound 78, 3-(benzo[d][1,3]dioxol-5-yl)-N′-(2-hydroxy-5-methoxybenzylidene)-1H-pyrazole-5-carbohydrazide]: the IC50 was 11.6 µM. The molecule `O=C(N/N=C/c1cc(Cl)cc(Cl)c1O)c1ccccc1O` [Compound 69, N′-(3,5-dichloro-2-hydroxy-benzylidene)-2-hydroxy-benzohydrazide] came in with an IC50 of 9.2 µM. The IC50 values of the last two molecules are within 1.5-fold of each other. Molecule `O=C(C/C(=N/NC(=O)c1ccccc1O)C(F)(F)F)c1ccc(Cl)s1` [Compound 19, N′-(4-(5-chlorothiophen-2-yl)-1,1,1-trifluoro-4-oxobutan-2-ylidene)-2-hydroxy benzohydrazide] showed an IC50 of 11.5 µM. As for `COc1ccc(O)c(/C=N/NC(=O)c2ccccc2NS(C)(=O)=O)c1` [Compound 100, N-(2-(2-(2-hydroxy-5-methoxybenzylidene)hydrazinecarbonyl)phenyl)methanesulfonamide], the figure is 33.2 µM; as for `O=C(C/C(=N/NC(=O)c1cnn(-c2ccccc2)c1C(F)(F)F)C(F)(F)F)c1cccs1` [Compound 34, 1-phenyl-N′-(1,1,1-trifluoro-4-oxo-4-(thiophen-2-yl)butan-2-ylidene)-5-(trifluoromethyl)-1H-pyrazole-4-carbohydrazide], 40.9 µM; as for `COc1ccc(O)c(/C=N/NC(=O)c2cc(Br)ccc2O)c1` [Compound 98, 5-bromo-2-hydroxy-N′-(2-hydroxy-5-methoxybenzylidene)benzohydrazide], 31.9 µM. `C/C(=N\NC(=O)c1ccccc1O)c1ccc(C)cc1` [Compound 79, 2-hydroxy-N′-(1-p-tolylethylidene) benzohydrazide] showed an IC50 of 13.3 µM. `O=C(N/N=C/c1c(O)ccc2ccccc12)c1sc2cc(F)ccc2c1Cl` [Compound 61, 3-chloro-6-fluoro-N′-((2-hydroxynaphthalen-1-yl)methylene) benzo[b]thiophene-2-carbohydrazide] registered an IC50 of 6.7 µM. Against the preceding molecule, the IC50 is about 2-fold lower. Regarding `COc1ccc(/C=N/NC(=O)c2ccccc2O)c(O)c1` [Compound 81, 2-hydroxy-N′-(2-hydroxy-4-methoxy-benzylidene)benzohydrazide], half-maximal inhibition (IC50) was put at 15 µM. For `O=C(C/C(=N/NC(=O)c1cc2ccccc2s1)C(F)(F)F)c1cccs1` [Compound 28, N′-(1,1,1-trifluoro-4-oxo-4-(thiophen-2-yl)butan-2-ylidene)benzo[b]thiophene-2-carbohydrazide], the IC50 was found to be 19.4 µM. The IC50 values of the last two molecules are within 1.5-fold of each other. As for `O=C(N/N=C/c1cc(Cl)ccc1NS(=O)(=O)c1ccc(F)cc1F)c1ccccc1O` [Compound 114, N-(4-chloro-2-((2-(2-hydroxybenzoyl)hydrazono)methyl)phenyl)-2,4-difluorobenzenesulfonamide], the figure is 46.7 µM.

For the molecule `O=C(N/N=C/c1cccc(F)c1O)c1ccccc1O` [Compound 74, N′-(3-fluoro-2-hydroxy-benzylidene)-2-hydroxy-benzohydrazide], the IC50 amounted to 10.9 µM. This IC50 is about 4.3-fold lower than that of the molecule before. As for `O=C(N/N=C/c1c(O)ccc2ccccc12)c1cc(C2CC2)n[nH]1` [Compound 103, 3-cyclopropyl-N′-((2-hydroxynaphthalen-1-yl)methylene)-1H-pyrazole-5-carbohydrazide], the figure is 34.5 µM. The molecule `O=C(N/N=C/c1cccc(O)c1O)c1ccccc1O` [Compound 86, N′-(2,3-dihydroxy-benzylidene)-2-hydroxy-benzohydrazide] came in with an IC50 of 17.4 µM. Turning to `CS(=O)(=O)Nc1ccccc1C(=O)N/N=C(/CC(=O)c1cccs1)C(F)(F)F` [Compound 5, N-(2-(2-(1,1,1-trifluoro-4-oxo-4-(thiophen-2-yl)butan-2-ylidene)hydrazine-carbonyl)phenyl)methanesulfonamide], the IC50 stood at 6 µM. Turning to `O=C(C/C(=N\NC(=O)c1ccccc1O)C(F)(F)F)c1ccco1` [Compound 1, 2-hydroxy-N′-(1,1,1-trifluoro-4-(furan-2-yl)-4-oxobutan-2-ylidene)benzohydrazide], the IC50 was found to be 4.2 µM. Consider `COc1ccc(O)c(/C=N/NC(=O)c2cccc(C)c2O)c1` [Compound 63, 2-hydroxy-N′-(2-hydroxy-5-methoxy-benzylidene)-3-methyl-benzohydrazide], for which 7 µM corresponded to half-maximal inhibition (IC50). For the molecule `Nc1ccc(Cl)cc1/C=N/NC(=O)c1ccccc1O` [Compound 65, N′-(2-amino-5-chloro-benzylidene)-2-hydroxy-benzohydrazide], the IC50 was determined as 7.5 µM. `Cc1ccc(C(=O)N/N=C/c2cccc(C)c2O)cn1` [Compound 53, N′-(2-hydroxy-3-methyl-benzylidene)-6-methylnicotino-hydrazide]: 4.6 µM corresponded to half-maximal inhibition (IC50).

Molecule `O=C(C/C(=N/NC(=O)c1sc2cc(F)ccc2c1Cl)C(F)(F)F)c1cccs1` [Compound 24, 3-chloro-6-fluoro-N′-(1,1,1-trifluoro-4-oxo-4-(thiophen-2-yl)butan-2-ylidene)benzo[b]thiophene-2-carbohydrazide] showed an IC50 of 16.1 µM. `Cc1ccc(O)c(/C=N/NC(=O)c2ccccc2O)c1` [Compound 68, 2-hydroxy-N′-(2-hydroxy-5-methyl-benzylidene)benzohydrazide] registered a half-maximal inhibitory concentration (IC50) of 9.2 µM. For the molecule `COc1cc(Br)c(O)c(/C=N/NC(=O)c2ccccc2O)c1` [Compound 109, N′-(3-bromo-2-hydroxy-5-methoxybenzylidene)-2-hydroxybenzohydrazide], the IC50 came to 42 µM.

In turn, `Nc1ccc(Cl)cc1/C=N/NC(=O)c1ccccc1N` [Compound 93, 2-amino-N′-(2-amino-5-chlorobenzylidene)benzohydrazide] returned an IC50 of 23.9 µM. `COc1ccc(O)c(/C=N/NC(=O)c2ccc(F)cc2O)c1` [Compound 67, 4-fluoro-2-hydroxy-N′-(2-hydroxy-5-methoxy-benzylidene)benzohydrazide] displayed an IC50 of 8.3 µM.
